# Results published in patent publication US20200215018A1, “Gold(I) And Platinum(II) With Isocyanide Ligand Complexes: Synthesis And Biological Activity” (BOARD OF TRUSTEES OF THE UNIVERSITY OF ARKANSAS, priority 2019, published 2020).
# Like-named read-outs stand apart in the source and are kept apart here.
# Tests used:
# [1] = system: lung carcinoma (A549); test: In vitro cytotoxicity against A549
# [2] = system: MCF-10A; normal human epithelial breast cell line; test: Proliferation of non-tumoral cell line MCF-10A; type: cell-based; conditions: Table 3, non-cancerous cell line; read-out: (IC50 ± SD) μM MCF-10A
# Experimental: In addition, to verify the selectivity between cancer and normal cell line, the effects of these compounds on the proliferation of non-tumoral cell line (MCF-10A; normal human epithelial breast cell line) were also determined. […] In order to gain some more insight in the structure-activity relationship of the synthesized trans-Pt(II) complexes, the chemical descriptors of them such as surface area, volume, hydration energy, logP (measure of lipophilicity), refractivity (measuring the total polarizability of a mole of a compound), polarizability and mass were calculated using Hyperchem 8 software. The greater logP (lipophilicity) of complex 3a confirmed the importance of this descriptors for the cytotoxic activity of the trans-Pt(II) complexes.
# [3] = system: breast carcinoma (MCF-7); test: In vitro cytotoxicity against MCF-7; type: cell-based, human
# [4] = system: ovarian carcinoma (SKOV3); test: In vitro cytotoxicity against SKOV3; type: cell-based, human
# [5] = system: SKOV3 cells; test: Intracellular ROS determination by flow cytometry (DCFH-DA); type: cell-based, human; conditions: SKOV3, 10, 20, 40 μM
# Experimental: Changes in ROS levels were expressed as a ratio of the mean fluorescence intensity (MFI) in each condition divided by the basal intensity of the ROS at the untreated cells (negative controls, MFI0).
# Flow cytometry was used for determination of cellular reactive oxygen species (ROS) in SKOV3 cell line after treatment with complex 3a. In this highly sensitive method, to consider ROS formation, SKOV3 cells were treated with complex 3a and H2O2 (positive control) and stained with 2′,7′-Dichlorodihydrofluorescein diacetate (DCFH-DA), a cell-permanent non-fluorescent dye which is oxidized by cellular ROS and produce 2′,7′-dichlorofluorescein (DCF) fluorescent component. The intensity of DCF is a direct estimate of the amount of ROS within the cells.
# [6] = system: MCF-7 cells; conditions: for percentages of apoptotic cells (Annexin V+ cells): 48 hours incubation; for living cells (Annexin V−/7-AAD− cells): 48 hours; for percentage of the cells in early apoptotic phase: 48 h
# Experimental: Representative scatter plots show apoptosis of MCF-7 cells after 48 hours of incubation with different concentrations of (20, 40, and 80 mM) using the Annexin V-PE/7AAD detection kit. The percentages of apoptotic cells (Q2: late apoptotic and Q3: early apoptotic) were determined in Annexin V cells. Q1: necrotic cells, Q2: late apoptotic cells, Q3: early apoptotic cells, and Q4: living cells.
# [7] = system: pCDNA plasmid; test: Electrophoresis mobility shift assay, pCDNA plasmid; type: binding; conditions: 100 to 800 uM, 24 h and 48 h
# Experimental: FIG. 5 illustrates an electrophoresis mobility shift assay for platinum compounds for an embodiment of the present invention. A pCDNA plasmid in the circular form was incubated with cisplatin, 1b, and 2a at different concentrations for 24 h (A) and 48 h (B).
# Electrophoresis mobility shift assay is a common method that is applied to show the interaction of compounds with DNA. […] The shift was more notable with an increase in the concentrations from 100 to 800 uM, especially in the case of complex 2a; however, this compound at a higher concentration seemed to interact with the KBC loading dye and was trapped in the wells.
# [8] = system: MCF-7 cells; conditions: MCF-7, compared to untreated cells
# From the text: Quantitation of DNA content using flow cytometry or cell cycle analysis, is a basic method which is commonly used to assess the mechanisms of antiproliferative effects of anticancer drugs. In this method, a fluorescent DNA binding dye (in the present study: propidium iodide, PI) is used to stain DNA and measure the amount of DNA present in the cell. The cells in the G2 phase are expected to absorb approximately twice the amount of color compared to the cells in G1 as their DNA content has been doubled during S phase. Therefore, the cells in S phase have more DNA than G1 cells but less than G2 ones.
# [9] = system: MCF-7 cells; test: Comet assay (genotoxicity); type: cell-based, human
# From the text: (§1) Here, comet assay was used as a valuable method to predict the genotoxic effect of new synthesized trans-Pt(II) complexes on cancerous cells. In this single cell microgel electrophoresis method, following the DNA damage, the migration of chromosomal DNA from the nucleus increases and resembles the shape of a tail or comet. The longer tails display the more genotoxicity, while untreated cells as un-fragmented cells, represent a little or no tail.
# (§2) This is also effected by differences in the concentrations of complex 3a in comparison to untreated cells (negative control). pGEM-FT plasmid in circular form was incubated with different concentrations of cisplatin (positive controls) as well as complex 3a for 24 h.
# [10] = system: pGEM-FT plasmid; test: Electrophoresis mobility shift assay, pGEM-FT plasmid; type: binding; conditions: 24 h, compared to cisplatin positive control
# Experimental: FIG. 10 is a mobility shift assay of 1a compound. pGEM-FT plasmid in circular form was incubated with different concentrations of cisplatin (positive controls) as well as compound 1a for 24 h for additional embodiments of the present invention.
# as §1, with “tail. […] It could also be seen that compared to the untreated control, complex 3a could make a nick in DNA and subsequently slightly shift the mobility of the plasmid in a dose dependent manner. These observations confirm the direct interaction of complex 3a with DNA through genotoxic effect as observed in comet assay.” for “tail.”
# as §2
# [11] = read-out: (IC50 ± SD) μM A549, Table 3, trans-Pt(II) thiolate series A, 3a-e and ligands
# [12] = read-out: IC50 (μM ± SD) A549, Table 1, Pt(II) isocyanide series 1a-c, 2a-c
# [13] = read-out: IC50 A549, gold(I) complex study
# [14] = Table 1, Pt(II) isocyanide series 1a-c, 2a-c, read-out: IC50 (μM ± SD) MCF-7
# [15] = Table 3, trans-Pt(II) thiolate series A, 3a-e, read-out: (IC50 ± SD) μM MCF-7
# [16] = gold(I) complex study, read-out: IC50 MCF-7
# [17] = Table 1, Pt(II) isocyanide series 1a-c, 2a-c, read-out: IC50 (μM ± SD) SKOV3
# [18] = Table 3, trans-Pt(II) thiolate series A, 3a-e, read-out: (IC50 ± SD) μM SKOV3
# [19] = gold(I) complex study, read-out: IC50 SKOV3
# [20] = Homo sapiens, A549, read-out: (IC50 ± SD) μM A549
structure (smiles),measurement,setting,value
"N.N.[Cl][Pt][Cl] [Cisplatin, reference compound]",IC50,[1]; [11],9.71 µM
same,IC50,[1]; [12],6.68 ± 0.72 µM
same,IC50,[1]; [13],7.62 µM
same,IC50,[2],29.5 ± 1.03 µM
same,IC50,[3]; [14],13.4 µM
same,IC50,[3]; [15],11.6 µM
same,IC50,[3]; [16],11.5 µM
same,IC50,[4]; [17],14.6 ± 1.3 µM
same,IC50,[4]; [18],14.5 µM
same,IC50,[4]; [19],12.4 µM
"OO [H2O2, reference compound]",ROS production (MFI/MFI0),[5],induce ROS production within 20 minutes
"C=CCP(c1ccccc1)c1ccccc1 [PPh2allyl, allyldiphenylphosphine]",IC50,[1]; [20],> 100 µM
"Sc1nc2ccccc2[nH]1 [Sbi, benzimidazole-2-thiol]",IC50,[1]; [20],> 100 µM
"Sc1nc2ccccc2s1 [Sbt, benzothiazole-2-thiol]",IC50,[1]; [20],> 100 µM
"Sc1ccccn1 [Spy, pyridine-2-thiol]",IC50,[1]; [20],> 100 µM
"FC(F)(F)c1ccc(S)nc1 [Spy-5-CF3, 5-(trifluoromethyl)-pyridine-2-thiol]",IC50,[1]; [20],> 100 µM
"Sc1ncccn1 [SpyN, pyrimidine-2-thiol]",IC50,[1]; [20],> 100 µM
"[CH3][Pt-2]([CH3])([C]#[N+]Cc1ccccc1)[C]#[N+]Cc1ccccc1 [complex 1b, [Me2Pt(CNR)2] (R=benzyl)]",IC50,[1]; [12],21.4 ± 2.18 µM
same,percentages of apoptotic cells (Annexin V+ cells),[6]; 80 uM,77.22%
same,percentages of apoptotic cells (Annexin V+ cells),[6],27.36%
same,living cells (Annexin V−/7-AAD− cells),[6]; highest concentration (80),15.3%
same,living cells (Annexin V−/7-AAD− cells),[6]; lowest concentration (20),72.1%
same,shift in the mobility of the plasmid,[7],obvious shift in the mobility of the plasmid
same,IC50,[3]; [14],12.5 µM
same,IC50,[4]; [17],15.9 ± 1.25 µM
"[CH3][Pt-2]([CH3])([C]#[N+]C1CCCCC1)[C]#[N+]C1CCCCC1 [complex 1c, [Me2Pt(CNR)2] (R=cyclohexyl)]",IC50,[1]; [12],50.8 ± 1.64 µM
same,IC50,[3]; [14],68.3 ± 3.21 µM
same,IC50,[4]; [17],44.6 ± 1.17 µM
[C](#[N+]Cc1ccccc1)[Au-][S]c1ncccn1 [complex 2],IC50,[1]; [13],7.8 µM
same,induction of cellular apoptosis,"[6]; gold(I) complex study, MCF-7",induces apoptosis in cancerous cells in a dose-dependent manner
same,IC50,[3]; [16],6.14 µM
same,IC50,[4]; [19],6.26 µM
"Cc1cc[c]([Pt-2]([C]#[N+]C(C)(C)C)([C]#[N+]C(C)(C)C)[c]2ccc(C)cc2)cc1 [complex 2a, [(p-tolyl)2Pt(CNR)2] (R=t-butyl)]",IC50,[1]; [12],19.2 ± 2.59 µM
same,shift in the mobility of the plasmid,[7],obvious shift in the mobility of the plasmid
same,IC50,[3]; [14],11.1 ± 0.59 µM
same,IC50,[4]; [17],18.5 ± 2.38 µM
"Cc1cc[c]([Pt-2]([C]#[N+]Cc2ccccc2)([C]#[N+]Cc2ccccc2)[c]2ccc(C)cc2)cc1 [complex 2b, [(p-tolyl)2(CNR)2] (R=benzyl)]",IC50,[1]; [12],31.2 ± 2.27 µM
same,IC50,[3]; [14],62.3 ± 1.67 µM
same,IC50,[4]; [17],55.3 ± 2.19 µM
"Cc1cc[c]([Pt-2]([C]#[N+]C2CCCCC2)([C]#[N+]C2CCCCC2)[c]2ccc(C)cc2)cc1 [complex 2c, [(p-tolyl)2(CNR)2] (R=cyclohexyl)]",IC50,[1]; [12],44.3 ± 1.38 µM
same,IC50,[3]; [14],72.4 ± 2.32 µM
same,IC50,[4]; [17],67.1 ± 1.54 µM
"C=CC[P+](c1ccccc1)(c1ccccc1)[Pt-2]([S]c1ccccn1)([S]c1ccccn1)[P+](CC=C)(c1ccccc1)c1ccccc1 [complex 3a, trans-[Pt(PPh2allyl)2(κ^1—S—SR)2]]",effect on the cell cycle,[8],no clear effect
same,IC50,[1]; [11],4.31 µM
same,IC50,[2],38.4 ± 2.06 µM
same,genotoxic effect (comet tail),"[9]; MCF-7, 10 and 50 μM",strong genotoxic ability
same,percentage of the cells in early apoptotic phase,[6]; 2.5 μM,11.0%
same,percentage of the cells in early apoptotic phase,[6]; 5 μM,40.8%
same,percentage of the cells in early apoptotic phase,[6]; 10 μM,62.9%
same,IC50,[3]; [15],4.8 µM
same,ROS production (MFI/MFI0),[5],moderately induce ROS
same,IC50,[4]; [18],6.23 µM
same,shift in the mobility of the plasmid,[10],a little shift
"C=CC[P+](c1ccccc1)(c1ccccc1)[Pt-2]([Cl])([Cl])[P+](CC=C)(c1ccccc1)c1ccccc1 [complex A, cis-[Pt(PPh2allyl)2Cl2]]",IC50,[1]; [11],22.5 ± 1.62 µM
same,IC50,[2],68.7 ± 1.21 µM
same,IC50,[3]; [15],19 ± 1.24 µM
same,IC50,[4]; [18],34.5 ± 1.53 µM
"COc1cccc2c1C(=O)c1c(O)c3c(c(O)c1C2=O)C[C@@](O)(C(=O)CO)C[C@@H]3O[C@H]1C[C@H](N)[C@H](O)[C@H](C)O1 [doxorubicin, reference compound]",percentage of degraded DNA in the tail,"[9]; MCF-7, positive control, vs untreated cells",remarkably increased
